Reference: patent US8119662B2, “Crystalline compounds” (Generics [UK] Limited, priority 2005, dated 2012)
Counter-ions that a name gives are not always drawn.

Tests used:
[1] = Compressibility for dosage form preparation (e.g. tablets); assay type: physicochemical
[2] = Polymorphic stability following grinding and tablet punching; assay type: physicochemical

With `C[C@H](CSC(=O)c1ccccc1)C(=O)N1C[C@@H](Sc2ccccc2)C[C@H]1C(=O)O` [(4S)-1-[(2S)-3-(benzoylthio)-2-methylpropionyl]-4-(phenylthio)-L-proline calcium salt] the compressibility [1] was “excellent compressibility” and the “stability (changes in polymorphic form)” value [2] was “no changes in polymorphic form”.
